# Measured values from ChEMBL document CHEMBL5346896, “Development of indolealkylamine derivatives as potential multi-target agents for COVID-19 treatment” (Eur J Med Chem, 2023).
# System: SARS-CoV-2
# Experiment: Antiviral activity against SARS-CoV-2 spike pseudotyped lentivirus infected in HEK293 cells expressing human ACE2 assessed as inhibition of viral entry into cells preincubated with cell for 1 hrs followed by viral infection for 1 hrs and further replaced with fresh medium and measured 48 hrs post transduction by luminescence based luciferase reporter assay
# Assay type: functional, organism-based, HEK293T
# Conditions: Severe acute respiratory syndrome coronavirus 2, HEK-293T
smiles,measurement,value
COC(=O)NCCc1c(C(O)c2ccccc2)[nH]c2ccc(OC)cc12 (configuration not stated),IC50,~1000 nM
COc1ccc2[nH]c(C(O)c3ccc(Cl)cc3)c(CCNC(C)=O)c2c1 (configuration not stated),IC50,~1000 nM
